The results in this text go back to patent publication US7119102B2, “Substituted 3-amino-thieno[2,3-b]pyridine-2-carboxylic acid amide compounds and processes for preparing and their uses” (Boehringer Ingelheim Pharmaceuticals, Inc., priority 2003, dated 2006).

Each structure is given as a SMILES string.

Turning to `CCCc1cc(N2CCC(NCC(O)c3cnc4ccccc4c3)CC2)nc2sc(C(N)=O)c(N)c12` (centres unmarked) [Example 8, 3-Amino-6-[4-(2-hydroxy-2-quinolin-3-yl-ethylamino)-piperidin-1-yl]-4-propyl-thieno[2,3-b]pyridine-2-carboxylic acid amide], the melting point (in general, the temperature, or range, at which the solid turns liquid) fell in the range of 213 to 216 °C.
With `NC(=O)c1sc2nc(N3CCC(NCC(O)c4cccnc4)CC3)cc(C(F)(F)F)c2c1N` (centres unmarked) [Example 9, 3-Amino-6-[4-(2-hydroxy-2-pyridin-3-yl-ethylamino)-piperidin-1-yl]-4-trifluoromethyl-thieno[2,3-b]pyridine-2-carboxylic acid amide], the melting point lay within 179 to 181 °C.
Take `NC(=O)c1sc2nc(N3CCC(NCC(O)c4ccc5ccccc5n4)CC3)cc(C(F)(F)F)c2c1N` (centres unmarked) [Example 10, 3-Amino-6-[4-(2-hydroxy-2-quinolin-2-yl-ethylamino)-piperidin-1-yl]-4-trifluoromethyl-thieno[2,3-b]pyridine-2-carboxylic acid amide]: the melting point is 198 to 201 °C.
For the molecule `CCCc1cc(N2CCC(NCC(O)c3cc4ccccc4cn3)CC2)nc2sc(C(N)=O)c(N)c12` (centres unmarked) [Example 11, 3-Amino-6-[4-(2-hydroxy-2-isoquinolin-3-yl-ethylamino)-piperidin-1-yl]-4-propyl-thieno[2,3-b]pyridine-2-carboxylic acid amide], the melting point is 213 to 215 °C (dec.).
`NC(=O)c1sc2nc(N3CCC(NC[C@@H](O)c4ccccn4)CC3)cc(C(F)(F)F)c2c1N` [Example 22, 3-Amino-6-[4-((R)-2-hydroxy-2-pyridin-2-yl-ethylamino)-piperidin-1-yl]-4-trifluoromethyl-thieno[2,3-b]pyridine-2-carboxylic acid amide] displayed a melting point of 165 to 167 °C.
